Source: ChEMBL document CHEMBL1134928, “Synthesis and evaluation of potent pyrrolidine H(3) antagonists” (Bioorg Med Chem Lett, 2002)

What was measured:
[1] = biological target: T1, Histamine H1 receptor (Homo sapiens, UniProt P35367); experiment: Binding affinity to the human Histamine H1 receptor
[2] = biological target: T2, Histamine H3 receptor (Rattus norvegicus, UniProt Q9QYN8); experiment: Binding affinity against rat histamine H3 receptor
[3] = biological target: T3, Histamine H2 receptor (Homo sapiens, UniProt P25021); experiment: Binding affinity to the human Histamine H2 receptor
[4] = biological target: T1, Histamine H1 receptor; experiment: Binding affinity towards human Histamine H1 receptor (For compound 11)
[5] = biological target: T2, Histamine H3 receptor; experiment: Binding affinity towards rat Histamine H3 receptor (For compound 11)
[6] = biological target: T3, Histamine H2 receptor; experiment: Binding affinity towards human Histamine H2 receptor (For compound 11)
[7] = biological target: T2, Histamine H3 receptor; experiment: Binding affinity towards rats Histamine type 3 (H3) receptor

T2 sequence (Q9QYN8 whole entry): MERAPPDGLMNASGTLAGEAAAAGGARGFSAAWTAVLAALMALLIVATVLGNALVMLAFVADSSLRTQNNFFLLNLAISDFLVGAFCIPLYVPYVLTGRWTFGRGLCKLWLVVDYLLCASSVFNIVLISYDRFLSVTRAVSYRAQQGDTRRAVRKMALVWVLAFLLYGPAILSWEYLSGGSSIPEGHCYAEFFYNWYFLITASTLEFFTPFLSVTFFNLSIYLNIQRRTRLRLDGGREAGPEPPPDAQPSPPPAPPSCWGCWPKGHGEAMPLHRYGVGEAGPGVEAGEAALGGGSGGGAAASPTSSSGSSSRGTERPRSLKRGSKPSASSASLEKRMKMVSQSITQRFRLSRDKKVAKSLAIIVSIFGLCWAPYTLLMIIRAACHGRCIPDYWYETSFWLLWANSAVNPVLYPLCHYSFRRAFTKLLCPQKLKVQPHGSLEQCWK
T3 sequence (P25021 whole entry): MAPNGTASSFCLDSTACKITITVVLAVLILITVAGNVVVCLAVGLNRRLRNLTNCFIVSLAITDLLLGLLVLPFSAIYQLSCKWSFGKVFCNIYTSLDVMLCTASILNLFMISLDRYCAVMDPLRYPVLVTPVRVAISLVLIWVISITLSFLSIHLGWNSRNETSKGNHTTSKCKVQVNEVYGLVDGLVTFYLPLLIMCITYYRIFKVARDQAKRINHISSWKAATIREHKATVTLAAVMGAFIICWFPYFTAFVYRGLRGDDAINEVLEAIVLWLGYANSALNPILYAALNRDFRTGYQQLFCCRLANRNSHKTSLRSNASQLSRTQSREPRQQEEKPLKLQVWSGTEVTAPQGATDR
T1 sequence (P35367 whole entry): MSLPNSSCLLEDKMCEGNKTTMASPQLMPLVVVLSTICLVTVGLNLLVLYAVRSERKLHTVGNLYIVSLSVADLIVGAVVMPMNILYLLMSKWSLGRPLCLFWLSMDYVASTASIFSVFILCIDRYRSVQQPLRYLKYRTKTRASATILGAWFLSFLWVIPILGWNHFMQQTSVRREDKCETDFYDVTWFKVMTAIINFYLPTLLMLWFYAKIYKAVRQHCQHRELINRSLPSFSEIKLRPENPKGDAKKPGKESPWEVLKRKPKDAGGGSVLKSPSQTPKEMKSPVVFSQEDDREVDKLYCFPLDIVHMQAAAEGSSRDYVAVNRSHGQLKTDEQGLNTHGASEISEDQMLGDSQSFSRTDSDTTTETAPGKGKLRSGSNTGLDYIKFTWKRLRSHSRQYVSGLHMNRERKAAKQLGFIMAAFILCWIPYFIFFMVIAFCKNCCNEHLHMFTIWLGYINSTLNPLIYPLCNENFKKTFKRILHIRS

| Ki [1] [nM] | Ki [2] [nM] | Ki [3] [nM] | SMILES | also measured |
| --- | --- | --- | --- | --- |
| 11000 | 55 | 6200 | CC(=O)c1ccc(OCCCN2CC[C@H](NC(=O)c3csc(-c4cccnc4)n3)C2)cc1 | – |
| 9100 | 3 | 1200 | O=C(c1ccc(OCCCN2CC[C@H](NS(=O)(=O)c3ccccc3)C2)cc1)C1CC1 | – |
| 8900 | 2.8 | 900 | N#Cc1cccc(S(=O)(=O)N[C@H]2CCN(CCCOc3ccc(C(=O)C4CC4)cc3)C2)c1 | – |
| – | 120 | – | CCS(=O)(=O)N1C[C@@H]2C[C@H]1CN2CCCOc1ccc(C(=O)C2CC2)cc1 | – |
| 7400 | – | 3500 | CC(=O)c1ccc(OCCCN2CC[C@H](NC(=O)c3cccnc3)C2)cc1 | – |
| 4500 | – | 1000 | O=C(c1ccc(OCCCN2CC[C@H](NS(=O)(=O)c3ccccc3Cl)C2)cc1)C1CC1 | – |
| 80000 | 310 | 100000 | CC(=O)c1ccc(OCCCN2CC[C@H](NC(=O)[C@@H](CO)NC(=O)OC(C)(C)C)C2)cc1 | – |
| – | 19 | – | O=C(c1ccc(OCCCN2C[C@@H]3C[C@H]2CN3S(=O)(=O)c2ccccc2)cc1)C1CC1 | – |
| 14000 | 6 | 2300 | CC(=O)c1ccc(OCCCN2CC[C@H](NS(=O)(=O)c3ccc(C#N)cc3)C2)cc1 | – |
| – | 208 | – | O=C(c1ccc(OCCCN2C[C@@H]3C[C@H]2CN3C(=O)c2ccco2)cc1)C1CC1 | – |
| 2300 | 4.6 | 330 | CCc1ccc(S(=O)(=O)N[C@H]2CCN(CCCOc3ccc(C(=O)C4CC4)cc3)C2)cc1 | – |
| 16000 | 11 | 2200 | Cc1ccccc1S(=O)(=O)N[C@H]1CCN(CCCOc2ccc(C(=O)C3CC3)cc2)C1 | – |
| 6600 | 2.7 | 1800 | Cc1cccc(S(=O)(=O)N[C@H]2CCN(CCCOc3ccc(C(=O)C4CC4)cc3)C2)c1 | – |
| 56000 | 307 | 40000 | CC(=O)c1ccc(OCCCN2CC[C@H](NC(=O)[C@@H](C)NC(=O)OC(C)(C)C)C2)cc1 | – |
| – | 413 | – | C[C@@H](NC(=O)N1C[C@@H]2C[C@H]1CN2CCCOc1ccc(C(=O)C2CC2)cc1)C(=O)O | – |
| 2500 | 3.8 | 290 | O=C(c1ccc(OCCCN2CC[C@H](NS(=O)(=O)c3ccc(Cl)cc3)C2)cc1)C1CC1 | – |
| 9400 | 2.7 | 1550 | O=C(c1ccc(OCCCN2CC[C@H](NS(=O)(=O)c3ccccc3F)C2)cc1)C1CC1 | – |
| 9200 | 3.5 | 500 | O=C(c1ccc(OCCCN2CC[C@H](NS(=O)(=O)c3ccc(F)cc3)C2)cc1)C1CC1 | – |
| 5900 | 1.6 | 1600 | O=C(c1ccc(OCCCN2CC[C@H](NS(=O)(=O)c3cccc(F)c3)C2)cc1)C1CC1 | – |
| 43000 | 151 | 22000 | CC(=O)c1ccc(OCCCN2CC[C@H](NC(=O)[C@@H](N)CO)C2)cc1 | – |
| 2300 | 5.2 | 730 | CC(C)(C)c1ccc(S(=O)(=O)N[C@H]2CCN(CCCOc3ccc(C(=O)C4CC4)cc3)C2)cc1 | – |

| Ki [1] [nM] | Ki [2] [nM] | Ki [3] [nM] | SMILES | also measured |
| --- | --- | --- | --- | --- |
| – | 191 | – | O=C(c1ccc(OCCCN2C[C@@H]3C[C@H]2CN3C(=O)c2ccccn2)cc1)C1CC1 | – |
| – | 232 | – | C[C@H](NC(=O)N1C[C@@H]2C[C@H]1CN2CCCOc1ccc(C(=O)C2CC2)cc1)C(=O)O | – |
| 4400 | 2.9 | 1000 | COc1ccc(S(=O)(=O)N[C@H]2CCN(CCCOc3ccc(C(=O)C4CC4)cc3)C2)cc1 | – |
| 5500 | 4.2 | 380 | Cc1ccc(S(=O)(=O)N[C@H]2CCN(CCCOc3ccc(C(=O)C4CC4)cc3)C2)cc1 | – |
| 20000 | 4 | 1600 | N#Cc1ccc(S(=O)(=O)N[C@H]2CCN(CCCOc3ccc(C(=O)C4CC4)cc3)C2)cc1 | – |
| – | 17 | – | O=C(O)CCNC(=O)N1C[C@@H]2C[C@H]1CN2CCCOc1ccc(C(=O)C2CC2)cc1 | – |
| – | 71 | – | CC(C)(C)OC(=O)NCCC(=O)N1C[C@@H]2C[C@H]1CN2CCCOc1ccc(C(=O)C2CC2)cc1 | – |
| 75000 | 587 | 46000 | CC(=O)c1ccc(OCCCN2CC[C@H](NC(=O)[C@H](CO)NC(=O)OC(C)(C)C)C2)cc1 | – |
| – | 344 | – | O=C(c1ccc(OCCCN2C[C@@H]3C[C@H]2CN3C(=O)c2ccccc2)cc1)C1CC1 | – |
| 90000 | – | 50000 | CC(=O)c1ccc(OCCCN2CC[C@H](N)C2)cc1 | Ki [4]: 100000 nM; Ki [5]: 676 nM; Ki [6]: 31000 nM |
| 60000 | 901 | 24000 | CC(=O)c1ccc(OCCCN2CC[C@H](NC(=O)[C@H](C)NC(=O)OC(C)(C)C)C2)cc1 | – |
| – | 258 | – | O=C(c1ccc(OCCCN2C[C@@H]3C[C@H]2CN3C(=O)c2ccc(F)cc2)cc1)C1CC1 | – |
| 3600 | 3 | 700 | O=C(c1ccc(OCCCN2CC[C@H](NS(=O)(=O)c3cccc(Cl)c3)C2)cc1)C1CC1 | – |
| 1500 | 5 | 290 | O=C(c1ccc(OCCCN2CC[C@H](NS(=O)(=O)c3ccc(Br)cc3)C2)cc1)C1CC1 | – |
| 91000 | 10 | 7100 | Cn1cnc(S(=O)(=O)N[C@H]2CCN(CCCOc3ccc(C(=O)C4CC4)cc3)C2)c1 | – |
| 10000 | 202 | 5000 | CC(=O)c1ccc(OCCCN2CC[C@H](NC(=O)c3cnccn3)C2)cc1 | – |
| 37000 | 50 | 4000 | O=C(N[C@H]1CCN(CCCOc2ccc(C(=O)C3CC3)cc2)C1)c1csc(-c2cccnc2)n1 | – |
| – | 134 | – | O=C(c1ccc(OCCCN2C[C@@H]3C[C@H]2CN3C(=O)C2CCCCC2)cc1)C1CC1 | – |
| 6200 | 11 | 710 | N#Cc1ccccc1S(=O)(=O)N[C@H]1CCN(CCCOc2ccc(C(=O)C3CC3)cc2)C1 | – |
| 13000 | 40 | 6100 | CC(=O)c1ccc(OCCCN2CC[C@H](NC(=O)c3ccc(C#N)cc3)C2)cc1 | – |
| – | – | – | CCCCCC(=O)c1ccc(OCCCN2CCN(C(=O)OCC)CC2)cc1 | Ki [7]: 2 nM |
